From patent US20180280377A1, “Imidazo[4,5-c]quinolin-2-one Compounds and Their Use in Treating Cancer” (ASTRAZENECA AB, priority 2015, published 2018) come the findings set out here.

The target in one assay is T1, ATR (Homo sapiens, UniProt Q13535).
T1 construct: endogenous in cells; host or cells: HT29 cells (ECACC #85061109)
In words: ATR cellular potency assay (pChk1 Ser345 in HT29 cells after 4NQO). The assay is classed as cell-based. To be noted: pChk1 (Ser 345); Table 2; read-out: Assay b) ATR Cell IC50. The procedure: (§1) The following assays were used to measure the effects of the compounds of the present invention: a) ATM cellular potency assay; b) PI3K cellular potency assay; c) mTOR cellular potency assay; d) ATR cellular potency assay. During the description of the assays, generally: • i. […] IC50 values were calculated using a smart fitting model in Genedata.
ATR is a PI3-kinase-related kinase which phosphorylates multiple substrates on serine or threonine residues in response to DNA damage during or replication blocks. Chk1, a downstream protein kinase of ATR, plays a key role in DNA damage checkpoint control. Activation of Chk1 involves phosphorylation of Ser317 and Ser345 (the latter regarded as the preferential target for phosphorylation/activation by ATR).
The following morning compound of Formula (I) in 100% DMSO were added to assay plates by acoustic dispensing. After 1 h incubation at 37° C. and 5% CO2, 40 nl of 3 mM 4NQO in 100% DMSO was added to all wells by acoustic dispensing, except minimum control wells which were left untreated with 4NQO to generate a null response control. Plates were returned to the incubator for a further 1 h. Then cells were fixed by adding 20 μl of 3.7% formaldehyde in PBS solution and incubating for 20 mins at r.t. Then […] of 0.1% Triton X100 in PBS was added and incubated for 10 minutes at r.t., to permeabalise cells. Then the plates were washed once with […] PBS, using a Biotek EL405 plate washer.
After 2 h incubation at r.t., the plates were washed three times with […] PBS, using a Biotek EL405 plate washer, and plates were then sealed with black plate seals until read. Plates were read using an ArrayScan VTI instrument, using an XF53 filter with 10× objective.

A further assay has as its target T2, ATM (Homo sapiens, UniProt Q13315).
T2 construct: endogenous in cells; host or cells: HT29 cells (ECACC #85061109)
Kind of assay: ATM cellular potency assay (pATM Ser1981 in irradiated HT29 cells). The following applies: 1 h compound, X-ray irradiation, pATM (Ser1981); Table 2; read-out: Assay a) ATM Cell IC50. The assay is classed as cell-based. The procedure: as §1
Most ATM molecules in the cell are rapidly phosphorylated on this site after doses of radiation as low as 0.5 Gy, and binding of a phosphospecific antibody is detectable after the introduction of only a few DNA double-strand breaks in the cell.
The rationale of the pATM assay is to identify inhibitors of ATM in cells. HT29 cells are incubated with test compounds for 1 h prior to X-ray-irradiation. 1 h later the cells are fixed and stained for pATM (Ser1981). The fluorescence is read on the arrayscan imaging platform.
The following morning compounds of Formula (I) in 100% DMSO were added to assay plates by acoustic dispensing. After 1 h incubation at 37° C. and 5% CO2, plates (up to 6 at a time) were irradiated using the X-RAD 320 instrument (PXi) with equivalent to 600 cGy. Plates were returned to the incubator for a further 1 h. Then cells were fixed by adding 20 μl of 3.7% formaldehyde in PBS solution and incubating for 20 minutes at r.t. before being washed with 50μl/well PBS, using a Biotek EL405 plate washer. Then 20 μl of 0.1% Triton X100 in PBS was added and incubated for 20 minutes at r.t., to permeabalise cells. Then the plates were washed once with 50 μl/well PBS, using a Biotek EL405 plate washer.
After 1 h incubation at r.t., the plates were washed three times with 50 μl/well PBS, using a Biotek EL405 plate washer, and plates were sealed and kept in PBS at 4° C. until read. Plates were read using an ArrayScan VTI instrument, using an XF53 filter with 10× objective.

In general, IC50 refers to the concentration that inhibits the measured activity by half.

T1 sequence (Q13535 whole entry): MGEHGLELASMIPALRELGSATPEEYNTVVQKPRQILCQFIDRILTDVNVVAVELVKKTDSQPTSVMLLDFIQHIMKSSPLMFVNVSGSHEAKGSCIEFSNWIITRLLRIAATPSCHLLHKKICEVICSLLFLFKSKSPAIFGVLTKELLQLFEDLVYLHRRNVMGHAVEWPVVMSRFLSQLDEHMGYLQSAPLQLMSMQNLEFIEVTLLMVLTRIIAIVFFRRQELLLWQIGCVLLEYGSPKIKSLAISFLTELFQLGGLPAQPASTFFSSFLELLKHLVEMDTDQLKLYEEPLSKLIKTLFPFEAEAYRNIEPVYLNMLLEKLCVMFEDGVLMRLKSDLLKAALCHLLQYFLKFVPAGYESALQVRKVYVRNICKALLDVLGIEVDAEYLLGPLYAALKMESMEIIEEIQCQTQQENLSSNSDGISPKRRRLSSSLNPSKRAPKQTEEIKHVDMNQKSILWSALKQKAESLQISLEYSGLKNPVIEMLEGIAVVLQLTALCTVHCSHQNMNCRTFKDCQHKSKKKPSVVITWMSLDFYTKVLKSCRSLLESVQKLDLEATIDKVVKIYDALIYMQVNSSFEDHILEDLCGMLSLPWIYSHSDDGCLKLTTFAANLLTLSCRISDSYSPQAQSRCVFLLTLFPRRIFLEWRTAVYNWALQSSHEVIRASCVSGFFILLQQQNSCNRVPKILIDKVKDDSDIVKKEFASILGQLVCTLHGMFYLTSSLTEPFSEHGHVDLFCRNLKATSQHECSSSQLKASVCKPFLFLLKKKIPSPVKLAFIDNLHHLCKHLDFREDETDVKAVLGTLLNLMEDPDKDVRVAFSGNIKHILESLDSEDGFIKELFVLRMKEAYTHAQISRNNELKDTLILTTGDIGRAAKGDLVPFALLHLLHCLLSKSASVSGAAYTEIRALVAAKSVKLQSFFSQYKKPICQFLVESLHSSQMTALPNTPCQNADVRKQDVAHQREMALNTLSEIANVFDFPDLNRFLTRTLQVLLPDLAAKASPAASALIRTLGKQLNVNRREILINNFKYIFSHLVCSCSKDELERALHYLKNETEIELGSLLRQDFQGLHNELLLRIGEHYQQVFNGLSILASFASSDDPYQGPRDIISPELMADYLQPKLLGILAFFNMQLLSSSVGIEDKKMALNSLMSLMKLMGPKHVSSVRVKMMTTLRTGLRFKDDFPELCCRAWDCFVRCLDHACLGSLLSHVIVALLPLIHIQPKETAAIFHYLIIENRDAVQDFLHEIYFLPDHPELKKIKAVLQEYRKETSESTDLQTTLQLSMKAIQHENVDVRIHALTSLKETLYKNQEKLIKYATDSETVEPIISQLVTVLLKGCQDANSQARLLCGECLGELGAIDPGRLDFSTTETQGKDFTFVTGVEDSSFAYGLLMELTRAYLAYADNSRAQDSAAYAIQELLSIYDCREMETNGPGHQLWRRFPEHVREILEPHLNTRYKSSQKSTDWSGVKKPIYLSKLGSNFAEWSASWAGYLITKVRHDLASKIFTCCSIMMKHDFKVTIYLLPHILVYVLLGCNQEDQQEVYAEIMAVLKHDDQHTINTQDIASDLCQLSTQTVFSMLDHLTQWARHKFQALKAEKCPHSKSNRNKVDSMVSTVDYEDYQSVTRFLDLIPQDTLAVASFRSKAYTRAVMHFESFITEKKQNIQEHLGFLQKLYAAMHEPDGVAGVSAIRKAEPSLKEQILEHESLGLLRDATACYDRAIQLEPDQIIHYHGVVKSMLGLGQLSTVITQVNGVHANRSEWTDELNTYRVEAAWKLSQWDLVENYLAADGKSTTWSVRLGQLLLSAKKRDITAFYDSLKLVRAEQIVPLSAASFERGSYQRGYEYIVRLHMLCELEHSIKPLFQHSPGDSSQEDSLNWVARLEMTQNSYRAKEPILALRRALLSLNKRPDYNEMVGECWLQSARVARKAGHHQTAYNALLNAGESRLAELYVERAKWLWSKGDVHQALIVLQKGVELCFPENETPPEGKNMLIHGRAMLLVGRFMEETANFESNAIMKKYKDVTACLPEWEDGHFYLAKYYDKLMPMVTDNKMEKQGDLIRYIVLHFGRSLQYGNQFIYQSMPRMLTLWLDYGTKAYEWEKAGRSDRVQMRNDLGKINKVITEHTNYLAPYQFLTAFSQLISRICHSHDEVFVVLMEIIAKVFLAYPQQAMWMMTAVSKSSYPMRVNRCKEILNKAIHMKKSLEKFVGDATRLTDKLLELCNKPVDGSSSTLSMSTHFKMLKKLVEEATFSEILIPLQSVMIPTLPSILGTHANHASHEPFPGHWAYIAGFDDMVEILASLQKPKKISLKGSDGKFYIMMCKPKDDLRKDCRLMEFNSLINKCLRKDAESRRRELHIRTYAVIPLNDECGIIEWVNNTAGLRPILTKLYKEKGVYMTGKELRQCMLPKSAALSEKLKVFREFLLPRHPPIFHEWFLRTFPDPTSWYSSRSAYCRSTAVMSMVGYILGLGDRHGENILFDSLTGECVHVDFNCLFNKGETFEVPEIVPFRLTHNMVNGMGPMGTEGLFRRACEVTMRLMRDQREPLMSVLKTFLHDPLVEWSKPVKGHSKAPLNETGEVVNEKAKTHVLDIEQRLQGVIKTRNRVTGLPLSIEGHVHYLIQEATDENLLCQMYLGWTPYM
T1 sequence (Q8WXE1 whole entry partner): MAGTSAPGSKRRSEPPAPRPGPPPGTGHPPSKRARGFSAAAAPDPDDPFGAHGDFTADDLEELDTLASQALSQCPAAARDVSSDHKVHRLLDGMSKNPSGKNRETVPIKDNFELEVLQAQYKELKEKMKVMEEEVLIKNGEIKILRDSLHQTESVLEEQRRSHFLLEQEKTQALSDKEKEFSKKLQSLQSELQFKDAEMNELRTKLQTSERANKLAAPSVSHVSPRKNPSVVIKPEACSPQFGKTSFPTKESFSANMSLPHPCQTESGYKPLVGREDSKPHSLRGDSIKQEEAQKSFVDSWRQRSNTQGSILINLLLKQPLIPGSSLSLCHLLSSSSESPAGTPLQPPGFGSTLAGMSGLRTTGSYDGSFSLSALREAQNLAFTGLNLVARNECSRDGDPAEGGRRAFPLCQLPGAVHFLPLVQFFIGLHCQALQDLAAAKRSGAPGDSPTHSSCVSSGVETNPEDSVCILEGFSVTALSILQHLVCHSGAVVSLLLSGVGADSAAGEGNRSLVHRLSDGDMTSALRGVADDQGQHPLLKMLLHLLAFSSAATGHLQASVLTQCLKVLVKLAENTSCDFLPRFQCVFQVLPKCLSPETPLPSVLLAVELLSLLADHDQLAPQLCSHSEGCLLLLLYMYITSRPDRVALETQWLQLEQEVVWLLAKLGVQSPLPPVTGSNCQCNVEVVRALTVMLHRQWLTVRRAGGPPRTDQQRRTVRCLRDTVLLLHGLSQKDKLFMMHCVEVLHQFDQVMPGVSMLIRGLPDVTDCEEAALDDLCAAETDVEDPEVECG

For the molecule `CO[C@H]1CCC[C@H](n2c(=O)n(C)c3cnc4ccc(-c5ccc(N6CC(N(C)C)C6)nc5)cc4c32)C1` (single isomer, unassigned) [Example 56, 8-[6-[3-(dimethylamino)azetidin-1-yl]-3-pyridyl]-1-[trans-3-methoxycyclohexyl]-3-methyl-imidazo[4,5-c]quinolin-2-one], the IC50 on ATR was found to be 1190 nM; at ATM, 15.7 nM.
In the same order, the values of `CO[C@H]1CCC[C@H](n2c(=O)n(C)c3cnc4ccc(-c5ccc(N6CC[C@@H](N(C)C)C6)nc5)cc4c32)C1` (single isomer, unassigned) [Example 52] are 61.6 nM and 0.112 nM.
In the same order, the values of `CO[C@H]1CC[C@@H](n2c(=O)n(C)c3cnc4ccc(-c5ccc(N6CC[C@@H](N(C)C)C6)nc5)cc4c32)CC1` (single isomer, unassigned) [Example 44] are 1120 nM and 0.889 nM.
For `CN(C)C1CN(c2ccc(-c3ccc4ncc5c(c4c3)n([C@@H]3CCCOC3)c(=O)n5C)cn2)C1` [Example 27, 8-[6-[3-(dimethylamino)azetidin-1-yl]-3-pyridyl]-3-methyl-1-[(3R)-tetrahydropyran-3-yl]imidazo[4,5-c]quinolin-2-one], in that order: 5950 nM and 5.9 nM.
On to `CO[C@H]1CC[C@H](n2c(=O)n(C)c3cnc4ccc(-c5ccc(N6CC(N(C)C)C6)nc5)cc4c32)CC1` [Example 25, 8-[6-[3-(dimethylamino)azetidin-1-yl]-3-pyridyl]-1-(trans-4-methoxycyclohexyl)-3-methyl-imidazo[4,5-c]quinolin-2-one], for which the IC50 at ATR turned out to be 2520 nM; on ATM, 6.61 nM.
For `CN(C)C1CN(c2ccc(-c3ccc4ncc5c(c4c3)n([C@H]3CCCOC3)c(=O)n5C)cn2)C1` [Example 24, 8-[6-[3-(dimethylamino)azetidin-1-yl]-3-pyridyl]-3-methyl-1-[(3S)-tetrahydropyran-3-yl]imidazo[4,5-c]quinolin-2-one], in that order: 9230 nM and 16.6 nM.
As to “8-[6-[4-(dimethylamino)-1-piperidyl]-3-pyridyl-3-methyl-1-tetrahydropyran-4-yl-imidazo[4,5-c]quinolin-2-one [Example 39]”, the IC50 at ATR was greater than 30000 nM; on ATM, 2.69 nM.
Consider `CO[C@H]1CCC[C@H](n2c(=O)n(C)c3cnc4ccc(-c5ccc(N6CCC(N(C)C)CC6)nc5)cc4c32)C1` (single isomer, unassigned) [Example 54, 8-[6-[4-(dimethylamino)-1-piperidyl]-3-pyridyl]-1-[trans-3-methoxycyclohexyl]-3-methyl-imidazo[4,5-c]quinolin-2-one], for which the IC50 at ATR was greater than 25600 nM; on ATM, 0.061 nM.
In the case of `CO[C@H]1C[C@@H](n2c(=O)n(C)c3cnc4ccc(-c5ccc(N6CC[C@@H](N(C)C)C6)nc5)cc4c32)C1` [Example 10], the IC50 was found to be 3210 nM on ATR and 0.752 nM on ATM.
In the same order, the values of `CNC1CCN(c2ccc(-c3ccc4ncc5c(c4c3)n([C@@H]3CCCOC3)c(=O)n5C)cn2)CC1` [Example 58, 3-methyl-8-[6-[4-(methylamino)-1-piperidyl]-3-pyridyl]-1-[(3R)-tetrahydropyran-3-yl]imidazo[4,5-c]quinolin-2-one] are greater than 21800 nM and 2.25 nM.
Take `CO[C@H]1CC[C@H](n2c(=O)n(C)c3cnc4cc(F)c(-c5ccc(N6CC(N(C)C)C6)nc5)cc4c32)C1` (single isomer, unassigned) [Example 29, 8-[6-[3-(dimethylamino)azetidin-1-yl]-3-pyridyl]-7-fluoro-1-[trans-3-methoxycyclopentyl]-3-methyl-imidazo[4,5-c]quinolin-2-one]: the IC50 on ATR is greater than 30000 nM; on ATM, 9.68 nM.
Consider `CO[C@@H]1CCC[C@H](n2c(=O)n(C)c3cnc4ccc(-c5ccc(N6CC[C@@H](N(C)C)C6)nc5)cc4c32)C1` (single isomer, unassigned) [Example 48], for which the IC50 was 201 nM at ATR and 2.34 nM on ATM.
Regarding `CO[C@H]1CCC[C@H](n2c(=O)n(C)c3cnc4ccc(-c5ccc(N6CCC(N(C)C)CC6)nc5)cc4c32)C1` (single isomer, unassigned) [Example 53, 8-[6-[4-(dimethylamino)-1-piperidyl]-3-pyridyl]-1-[trans-3-methoxycyclohexyl]-3-methyl-imidazo[4,5-c]quinolin-2-one], the IC50 on ATR is greater than 21400 nM; on ATM, 0.269 nM.
For `CN(C)[C@@H]1CCN(c2ccc(-c3ccc4ncc5c(c4c3)n([C@H]3CCOC3)c(=O)n5C)cn2)C1` [Example 8], in that order: 261 nM and 1.04 nM.
With `CN(C)C1CN(c2ccc(-c3ccc4ncc5c(c4c3)n(C3CCC3)c(=O)n5C)cn2)C1` [Example 26, 1-cyclobutyl-8-[6-[3-(dimethylamino)azetidin-1-yl]-3-pyridyl]-3-methyl-imidazo[4,5-c]quinolin-2-one], the IC50 on ATR is greater than 20100 nM; on ATM, 9.29 nM.
For `CO[C@H]1C[C@H](n2c(=O)n(C)c3cnc4ccc(-c5ccc(N6CC[C@@H](N(C)C)C6)nc5)cc4c32)C1` [Example 11], in that order: 1080 nM and 0.77 nM.
As for `CN(C)[C@H]1CCN(c2ccc(-c3ccc4ncc5c(c4c3)n([C@H]3CCCOC3)c(=O)n5C)cn2)C1` [Example 17], the values for the half-maximal inhibitory concentration (IC50) on ATR and at ATM were greater than 30000 nM and 13.7 nM, respectively.
As for `CO[C@@H]1CCC[C@H](n2c(=O)n(C)c3cnc4ccc(-c5ccc(N6CC[C@@H](N(C)C)C6)nc5)cc4c32)C1` (single isomer, unassigned) [Example 47], the figures for the IC50 on ATR and at ATM were 1800 nM and 2.7 nM, respectively.
In the same order, the values of `CN(C)[C@@H]1CCN(c2ccc(-c3ccc4ncc5c(c4c3)n([C@H]3CCCOC3)c(=O)n5C)cn2)C1` [Example 9] are 2480 nM and 0.842 nM.
For `CO[C@@H]1CCC[C@H](n2c(=O)n(C)c3cnc4ccc(-c5ccc(N6CCC(N(C)C)CC6)nc5)cc4c32)C1` (single isomer, unassigned) [Example 45], in that order: greater than 30000 nM and 0.618 nM.
For `CO[C@H]1CC[C@H](n2c(=O)n(C)c3cnc4ccc(-c5ccc(N6CC[C@@H](N(C)C)C6)nc5)cc4c32)C1` [Example 5, 8-[6-[(3R)-3-(Dimethylamino)pyrrolidin-1-yl]-3-pyridyl]-1-[(1S,3S)-3-methoxycyclopentyl]-3-methyl-imidazo[4,5-c]quinolin-2-one], in that order: 284 nM and 0.312 nM.
